From patent US20250215029A1 (Recludix Pharma, Inc., priority 2022, published 2025)
Like-named read-outs stand apart in the source and are kept apart here.

What was measured:
[1] = target: T1, Recombinant STAT3 protein (STAT3 (G127-I722)) (Homo sapiens, UniProt P40763); assay: STAT3 Fluorescence Polarization (FP) Assay; type: binding; details: probe 5-FAM-GpYLPQTV-NH2 2 nM, 45-minute incubation
T1 construct: Recombinant STAT3 protein (STAT3 (G127-I722))
Method in brief: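 Displacement of a 2 nM 5-FAM-labelled pY peptide (GpYLPQTV) from 25 nM recombinant STAT3 (G127-I722) was monitored by fluorescence polarization. Incubation lasted 45 min at room temperature in pH 7.4 HEPES buffer containing 1% DMSO.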

[2] = target: T2, Recombinant STAT6 protein (STAT6 (W123-T658)) (Homo sapiens, UniProt P42226); assay: STAT6 Fluorescence Polarization (FP) Assay; type: binding; details: probe 5-FAM-Ap[…]-NH2 2 nM, 45-minute incubation
T2 construct: Recombinant STAT6 protein (STAT6 (W123-T658))
T2 sequence (P42226 123-658): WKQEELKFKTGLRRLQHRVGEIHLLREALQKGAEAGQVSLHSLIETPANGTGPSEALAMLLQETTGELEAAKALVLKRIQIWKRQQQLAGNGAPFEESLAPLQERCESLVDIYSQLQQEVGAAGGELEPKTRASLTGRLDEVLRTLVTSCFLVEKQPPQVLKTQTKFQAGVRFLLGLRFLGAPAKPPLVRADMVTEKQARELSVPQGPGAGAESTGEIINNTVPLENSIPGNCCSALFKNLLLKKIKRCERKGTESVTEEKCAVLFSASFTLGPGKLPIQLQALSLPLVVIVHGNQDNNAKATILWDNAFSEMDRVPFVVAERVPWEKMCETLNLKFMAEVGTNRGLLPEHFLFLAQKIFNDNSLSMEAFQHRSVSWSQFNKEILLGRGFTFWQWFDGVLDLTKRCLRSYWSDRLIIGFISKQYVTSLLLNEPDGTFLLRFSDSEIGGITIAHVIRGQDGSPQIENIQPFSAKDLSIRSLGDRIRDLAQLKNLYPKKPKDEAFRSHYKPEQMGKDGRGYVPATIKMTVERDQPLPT
Method in brief: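 Protein-probe mix (250 nM STAT6 W123-T658, 2 nM 5-FAM-pTyr peptide) in 10 mM HEPES pH 7.4, 50 mM NaCl, 1 mM EDTA, 0.05% Tween 20, 2 mM DTT; added to compound dilution series, 1% DMSO final; 45 min RT; FP read; IC50 via nonlinear regression.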

[3] = STAT3 25 nM, read-out: STAT3 (FP assay IC50)
[4] = STAT6 250 nM, read-out: STAT6 (FP assay IC50)
[5] = STAT3 (G127-I722) 25 nM, read-out: STAT3 (FP assay IC50 class)
[6] = STAT6 (W123-T658) 250 nM, read-out: STAT6 (FP assay IC50 class)

T1 sequence (P40763 127-722): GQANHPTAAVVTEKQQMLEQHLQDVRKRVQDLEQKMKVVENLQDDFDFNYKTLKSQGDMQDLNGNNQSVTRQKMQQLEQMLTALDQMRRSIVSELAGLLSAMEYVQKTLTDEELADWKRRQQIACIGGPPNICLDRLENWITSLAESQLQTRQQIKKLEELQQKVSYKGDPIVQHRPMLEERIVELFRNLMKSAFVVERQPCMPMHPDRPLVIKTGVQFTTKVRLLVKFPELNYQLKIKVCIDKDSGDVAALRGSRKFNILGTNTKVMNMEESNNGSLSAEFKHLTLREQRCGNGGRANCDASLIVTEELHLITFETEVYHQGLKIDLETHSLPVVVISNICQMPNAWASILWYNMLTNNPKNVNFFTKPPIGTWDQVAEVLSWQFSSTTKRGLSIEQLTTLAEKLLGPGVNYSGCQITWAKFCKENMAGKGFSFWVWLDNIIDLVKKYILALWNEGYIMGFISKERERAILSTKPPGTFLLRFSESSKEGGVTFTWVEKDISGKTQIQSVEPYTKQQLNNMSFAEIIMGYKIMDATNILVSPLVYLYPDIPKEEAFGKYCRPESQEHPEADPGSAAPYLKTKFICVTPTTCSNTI

Structure (SMILES) | IC50 [1, 3] [µM] | IC50 [2, 4] [µM] | IC50 [1, 5] [µM] | IC50 [2, 6] [µM]
CS(=N)(=O)CC1CN(C(=O)[C@@H]2CC[C@@H]3CCC[C@H](NC(=O)c4cc5cc(C(F)(F)P(=O)(O)O)ccc5s4)C(=O)N32)C1 (stereo partly drawn) [Compound 32, (difluoro(2-(((3S,6S,9aS)-3-(3-((S-methyl-sulfonimidoyl)methyl)azetidine-1-carbonyl)-5-oxooctahydro-1H-pyrrolo[1,2-a]azepin-6-yl)carbamoyl)benzo[b]thiophen-5-yl)methyl) phosphonic acid] | < 0.1 | 3 to 30 |  | 
O=C(N[C@H]1CCC[C@H]2CC[C@@H](C(=O)N3CC(c4ccccc4F)C3)N2C1=O)c1cc2cc(C(F)P(=O)(O)O)ccc2s1 (stereo partly drawn) [Compound 565, (fluoro(2-(((3S,6S,9aS)-3-(3-(2-fluorophenyl)azetidine-1-carbonyl)-5-oxooctahydro-1H-pyrrolo[1,2-a]azepin-6-yl)carbamoyl)benzo[b]thiophen-5-yl)methyl)phosphonic acid] |  |  | 0.1 to 1 | 3 to 30
CCc1ccncc1C1CN(C(=O)[C@@H]2CC[C@@H]3CCC[C@H](NC(=O)c4cc5cc(C(F)P(=O)(O)O)ccc5s4)C(=O)N32)C1 (stereo partly drawn) [Compound 205, ((2-(((3S,6S,9aS)-3-(3-(4-ethylpyridin-3-yl)azetidine-1-carbonyl)-5-oxooctahydro-1H-pyrrolo[1,2-a]azepin-6-yl)carbamoyl)benzo[b]thiophen-5-yl)fluoromethyl)phosphonic acid] |  |  | < 0.1 | 3 to 30
O=C(N[C@H]1CCC[C@H]2CC[C@@H](C(=O)N3CC(n4cc(F)cn4)C3)N2C1=O)c1cc2cc(C(F)P(=O)(O)O)ccc2s1 (stereo partly drawn) [Compound 614, (fluoro(2-(((3S,6S,9aS)-3-(3-(4-fluoro-1H-pyrazol-1-yl)azetidine-1-carbonyl)-5-oxooctahydro-1H-pyrrolo[1,2-a]azepin-6-yl)carbamoyl)benzo [b]thiophen-5-yl)methyl) phosphonic acid] |  |  | 0.1 to 1 | 3 to 30
COc1cc(F)ncc1C1CN(C(=O)[C@@H]2CC[C@@H]3CCC[C@H](NC(=O)c4cc5cc(CP(=O)(O)O)ccc5s4)C(=O)N32)C1 [Compound 577, ((2-(((3S,6S,9aS)-3-(3-(6-fluoro-4-methoxypyridin-3-yl)azetidine-1-carbonyl)-5-oxooctahydro-1H-pyrrolo[1,2-a]azepin-6-yl)carbamoyl)benzo[b]thiophen-5-yl)methyl)phosphonic acid] |  |  | 1 to 10 | 3 to 30
N#C[C@@H]1CN(C(=O)[C@@H]2CC[C@@H]3CCCC[C@H](NC(=O)c4cc5cc(C(F)(F)P(=O)(O)O)ccc5s4)C(=O)N32)C[C@H]1c1ccccc1 (relative stereo) [Compound 95, ((2-(((3S,6S,10aS)-3-(rel-(trans)-3-cyano-4-phenylpyrrolidine-1-carbonyl)-5-oxodecahydropyrrolo [1,2-a]azocin-6-yl)carbamoyl)benzo[b]thiophen-5-yl)difluoromethyl) phosphonic acid] | 0.1 to 1 | ≤ 0.3 |  | 
N#Cc1ccncc1C1CN(C(=O)[C@@H]2CC[C@@H]3CCC[C@H](NC(=O)c4cc5cc(CP(=O)(O)O)ccc5s4)C(=O)N32)C1 [Compound 520, ((2-(((3S,6S,9aS)-3-(3-(4-cyanopyridin-3-yl)azetidine-1-carbonyl)-5-oxooctahydro-1H-pyrrolo[1,2-a]azepin-6-yl)carbamoyl)benzo[b]thiophen-5-yl)methyl)phosphonic acid] |  |  | 1 to 10 | 3 to 30
N#C[C@@H]1CN(C(=O)[C@@H]2CC[C@@H]3CCCC[C@H](NC(=O)c4cc5cc([C@@H](F)P(=O)(O)O)ccc5s4)C(=O)N32)C[C@H]1c1ccccc1 (single isomer, unassigned) [Compound 19, ((2-(((3S,6S,10aS)-3-((3S,4R or 3R,4S))-3-cyano-4-phenylpyrrolidine-1-carbonyl)-5-oxodecahydropyrrolo [1,2-a]azocin-6-yl)carbamoyl)benzo[b]thiophen-5-yl)fluoromethyl) phosphonic acid] | 1 to 10 | ≤ 0.3 |  | 

Second part, the molecule after the results:

IC50 [1, 3] [µM] | IC50 [2, 4] [µM] | IC50 [1, 5] [µM] | IC50 [2, 6] [µM] | Structure (SMILES)
 |  | < 0.1 | 3 to 30 | COc1c(C2CN(C(=O)[C@@H]3CC[C@@H]4CCC[C@H](NC(=O)c5cc6cc(C(F)P(=O)(O)O)ccc6s5)C(=O)N43)C2)ccnc1F (stereo partly drawn) [Compound 925, (fluoro(2-(((3S,6S,9aS)-3-(3-(2-fluoro-3-methoxypyridin-4-yl)azetidine-1-carbonyl)-5-oxooctahydro-1H-pyrrolo[1,2-a]azepin-6-yl)carbamoyl)benzo [b]thiophen-5-yl)methyl) phosphonic acid]
 |  | < 0.1 | 3 to 30 | COc1ccncc1C1CN(C(=O)[C@@H]2CC[C@@H]3C[C@H](C)C[C@H](NC(=O)c4cc5cc([C@H](F)P(=O)(O)O)ccc5s4)C(=O)N32)C1 [Compound 766, ((R)-fluoro(2-(((3S,6S,8R,9aR)-3-(3-(4-methoxypyridin-3-yl)azetidine-1-carbonyl)-8-methyl-5-oxooctahydro-1H-pyrrolo[1,2-a]azepin-6-yl)carbamoyl)benzo [b]thiophen-5-yl)methyl) phosphonic acid]
 |  | < 0.1 | 0.3 to 3 | COc1ccncc1[C@@H]1CCN(C(=O)[C@@H]2CC[C@@H]3CCC[C@H](NC(=O)c4cc5cc(C(F)P(=O)(O)O)ccc5s4)C(=O)N32)C1 (stereo partly drawn) [Compound 706, (fluoro(2-(((3S,6S,9aS)-3-((S)-3-(4-methoxypyridin-3-yl)pyrrolidine-1-carbonyl)-5-oxooctahydro-1H-pyrrolo[1,2-a]azepin-6-yl)carbamoyl)benzo [b]thiophen-5-yl)methyl) phosphonic acid]
 |  | 1 to 10 | 0.3 to 3 | CN(CCc1cc[nH]c(=O)c1)C(=O)[C@@H]1CC[C@@H]2CCCC[C@H](NC(=O)c3cc4cc(C(F)(F)P(=O)(O)O)ccc4s3)C(=O)N21 [Compound 788, (difluoro(2-(((3S,6S,10aS)-3-(methyl(2-(2-oxo-1,2-dihydropyridin-4-yl)ethyl)carbamoyl)-5-oxodecahydropyrrolo [1,2-a]azocin-6-yl)carbamoyl)benzo [b]thiophen-5-yl)methyl) phosphonic acid]
 |  | < 0.1 | 0.3 to 3 | O=C(N[C@H]1CCC[C@H]2CC[C@@H](C(=O)N3CC(c4cnccc4F)C3)N2C1=O)c1cc2cc(C(F)P(=O)(O)O)ccc2s1 (stereo partly drawn) [Compound 664, (fluoro(2-(((3S,6S,9aS)-3-(3-(4-fluoropyridin-3-yl)azetidine-1-carbonyl)-5-oxooctahydro-1H-pyrrolo[1,2-a]azepin-6-yl)carbamoyl)benzo [b]thiophen-5-yl)methyl) phosphonic acid]
 |  | < 0.1 | 3 to 30 | O=C(N[C@H]1CCC[C@H]2CC[C@@H](C(=O)N3CC(c4cnccc4N4CCC4)C3)N2C1=O)c1cc2cc(CP(=O)(O)O)ccc2s1 [Compound 765, ((2-(((3S,6S,9aS)-3-(3-(4-(azetidin-1-yl)pyridin-3-yl)azetidine-1-carbonyl)-5-oxooctahydro-1H-pyrrolo[1,2-a]azepin-6-yl)carbamoyl)benzo [b]thiophen-5-yl)methyl) phosphonic acid]
 |  | 0.1 to 1 | 3 to 30 | COc1ncncc1C1CN(C(=O)[C@@H]2CC[C@@H]3CCC[C@H](NC(=O)c4cc5cc(C(F)P(=O)(O)O)ccc5s4)C(=O)N32)C1 (stereo partly drawn) [Compound 764, (fluoro(2-(((3S,6S,9aS)-3-(3-(4-methoxypyrimidin-5-yl)azetidine-1-carbonyl)-5-oxooctahydro-1H-pyrrolo[1,2-a]azepin-6-yl)carbamoyl)benzo [b]thiophen-5-yl)methyl) phosphonic acid]
 |  | < 0.1 | 3 to 30 | C[C@H]1COCCN1c1ccncc1C1CN(C(=O)[C@@H]2CC[C@@H]3CCC[C@H](NC(=O)c4cc5cc(CP(=O)(O)O)ccc5s4)C(=O)N32)C1 [Compound 679, ((2-(((3S,6S,9aS)-3-(3-(4-((S)-3-methylmorpholino)pyridin-3-yl)azetidine-1-carbonyl)-5-oxooctahydro-1H-pyrrolo[1,2-a]azepin-6-yl)carbamoyl)benzo [b]thiophen-5-yl)methyl) phosphonic acid]
 |  | < 0.1 | 3 to 30 | CN(C)c1ccncc1C1CN(C(=O)[C@@H]2CC[C@@H]3CCC[C@H](NC(=O)c4cc5cc([C@@H](F)P(=O)(O)O)ccc5s4)C(=O)N32)C1 (single isomer, unassigned) [Compound 631]
